Measured values from ChEMBL document CHEMBL1201862, “PubChem BioAssay data set” (2004).
Calls of active or inactive are those of the source.

Key:
Assay type in all cases: functional
[1] = target: Cyclin-dependent kinase 5 (Homo sapiens, UniProt Q00535);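 note: CDK5 measured as one member of a kinase profiling panel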
[2] = target: Protein kinase C theta type (Homo sapiens, UniProt Q04759); assay: Navigating the Kinome. Panel member name: PRKCQ
[3] = target: High affinity nerve growth factor receptor (Homo sapiens, UniProt P04629);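 note: NTRK1 tested as one member of a kinome-wide profiling panel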
[4] = target: Dual specificity mitogen-activated protein kinase kinase 1 (Homo sapiens, UniProt Q02750); assay: Navigating the Kinome. Panel member name: MAP2K1
[5] = target: Tyrosine-protein kinase receptor TYRO3 (Homo sapiens, UniProt Q06418);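 note: TYRO3 value obtained as one member of a kinome-wide profiling panel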
[6] = target: Dual specificity mitogen-activated protein kinase kinase 2 (Homo sapiens, UniProt P36507); assay: Navigating the Kinome. Panel member name: MAP2K2
[7] = target: Tyrosine-protein kinase JAK3 (Homo sapiens, UniProt P52333)
Chain of Tyrosine-protein kinase JAK3 (P52333 whole entry): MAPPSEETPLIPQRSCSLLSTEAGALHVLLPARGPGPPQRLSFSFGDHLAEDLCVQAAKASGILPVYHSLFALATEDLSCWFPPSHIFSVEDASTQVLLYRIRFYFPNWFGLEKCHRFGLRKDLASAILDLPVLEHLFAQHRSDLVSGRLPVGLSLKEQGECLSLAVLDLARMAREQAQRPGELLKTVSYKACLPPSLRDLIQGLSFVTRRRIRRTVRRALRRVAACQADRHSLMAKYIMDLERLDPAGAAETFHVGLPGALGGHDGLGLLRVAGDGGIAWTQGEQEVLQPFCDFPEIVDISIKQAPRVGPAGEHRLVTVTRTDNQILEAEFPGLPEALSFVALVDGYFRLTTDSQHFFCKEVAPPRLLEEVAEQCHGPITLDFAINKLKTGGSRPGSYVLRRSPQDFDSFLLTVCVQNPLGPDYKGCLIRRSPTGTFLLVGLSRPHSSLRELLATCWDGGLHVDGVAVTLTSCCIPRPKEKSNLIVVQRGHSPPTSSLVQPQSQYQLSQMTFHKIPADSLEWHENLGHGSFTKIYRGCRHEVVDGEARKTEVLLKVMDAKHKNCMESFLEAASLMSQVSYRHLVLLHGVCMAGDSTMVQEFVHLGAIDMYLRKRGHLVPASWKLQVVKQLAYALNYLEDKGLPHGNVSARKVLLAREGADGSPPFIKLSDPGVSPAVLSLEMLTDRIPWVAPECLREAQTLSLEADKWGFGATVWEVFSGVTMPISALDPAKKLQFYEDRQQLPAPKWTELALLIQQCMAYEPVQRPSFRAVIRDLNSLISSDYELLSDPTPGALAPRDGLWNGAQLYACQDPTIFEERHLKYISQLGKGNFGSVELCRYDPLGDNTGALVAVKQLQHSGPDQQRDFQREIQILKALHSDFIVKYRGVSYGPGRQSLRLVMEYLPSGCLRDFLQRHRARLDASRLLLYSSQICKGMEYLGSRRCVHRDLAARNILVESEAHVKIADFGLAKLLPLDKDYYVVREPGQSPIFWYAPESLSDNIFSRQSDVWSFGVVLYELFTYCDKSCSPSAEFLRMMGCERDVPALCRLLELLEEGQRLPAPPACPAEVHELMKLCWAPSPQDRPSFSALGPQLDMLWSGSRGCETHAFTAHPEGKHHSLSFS

[8] = target: Dual specificity protein kinase CLK2 (Homo sapiens, UniProt P49760)
Aurora kinase A = Aurora kinase A (Homo sapiens, UniProt O14965);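 note: value from the Navigating the Kinome kinase panel profiling, panel entry STK6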
[9] = target: Glycogen synthase kinase-3 alpha (Homo sapiens, UniProt P49840);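 note: GSK3A result taken from a broad kinome-wide kinase panel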
[10] = target: G protein-coupled receptor kinase 5 (Homo sapiens, UniProt P34947); assay: Navigating the Kinome. Panel member name: GPRK5
Chain of G protein-coupled receptor kinase 5 (P34947 whole entry): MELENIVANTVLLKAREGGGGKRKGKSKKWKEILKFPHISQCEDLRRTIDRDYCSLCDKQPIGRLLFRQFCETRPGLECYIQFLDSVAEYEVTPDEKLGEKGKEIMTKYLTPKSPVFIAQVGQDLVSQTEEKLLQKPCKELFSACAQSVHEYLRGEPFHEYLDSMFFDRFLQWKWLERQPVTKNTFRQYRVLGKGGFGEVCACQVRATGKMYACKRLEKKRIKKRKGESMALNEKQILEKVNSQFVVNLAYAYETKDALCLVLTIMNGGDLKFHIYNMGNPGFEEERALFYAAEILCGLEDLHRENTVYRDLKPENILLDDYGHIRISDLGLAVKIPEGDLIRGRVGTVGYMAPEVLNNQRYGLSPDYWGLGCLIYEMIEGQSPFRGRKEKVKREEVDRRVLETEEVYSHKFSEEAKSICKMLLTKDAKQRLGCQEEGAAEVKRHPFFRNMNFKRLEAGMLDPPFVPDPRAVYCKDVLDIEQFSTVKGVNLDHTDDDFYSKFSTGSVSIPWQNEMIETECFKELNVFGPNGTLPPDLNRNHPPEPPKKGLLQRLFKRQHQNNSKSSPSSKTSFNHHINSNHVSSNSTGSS

[11] = target: Dual specificity tyrosine-phosphorylation-regulated kinase 1A (Homo sapiens, UniProt Q13627);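 note: measured against DYRK1A as one member of a broad kinome profiling panel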
[12] = target: Mitogen-activated protein kinase 14 (Homo sapiens, UniProt Q16539);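 note: part of a kinome-wide panel, MAPK14 entry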
Chain of Mitogen-activated protein kinase 14 (Q16539 whole entry): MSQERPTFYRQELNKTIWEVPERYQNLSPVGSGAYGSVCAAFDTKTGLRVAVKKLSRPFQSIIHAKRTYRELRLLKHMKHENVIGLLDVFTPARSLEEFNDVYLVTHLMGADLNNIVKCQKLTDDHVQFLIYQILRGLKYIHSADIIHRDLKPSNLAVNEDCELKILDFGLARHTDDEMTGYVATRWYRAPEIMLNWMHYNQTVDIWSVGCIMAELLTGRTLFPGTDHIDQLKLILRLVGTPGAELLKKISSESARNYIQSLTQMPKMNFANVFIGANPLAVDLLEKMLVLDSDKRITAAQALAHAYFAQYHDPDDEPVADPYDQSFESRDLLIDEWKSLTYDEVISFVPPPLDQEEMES

[13] = target: T1, Serine/threonine-protein kinase D3 (Homo sapiens, UniProt O94806);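 note: determined within a kinase panel screen, with PRKCN as the panel member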
T1 sequence (O94806 whole entry): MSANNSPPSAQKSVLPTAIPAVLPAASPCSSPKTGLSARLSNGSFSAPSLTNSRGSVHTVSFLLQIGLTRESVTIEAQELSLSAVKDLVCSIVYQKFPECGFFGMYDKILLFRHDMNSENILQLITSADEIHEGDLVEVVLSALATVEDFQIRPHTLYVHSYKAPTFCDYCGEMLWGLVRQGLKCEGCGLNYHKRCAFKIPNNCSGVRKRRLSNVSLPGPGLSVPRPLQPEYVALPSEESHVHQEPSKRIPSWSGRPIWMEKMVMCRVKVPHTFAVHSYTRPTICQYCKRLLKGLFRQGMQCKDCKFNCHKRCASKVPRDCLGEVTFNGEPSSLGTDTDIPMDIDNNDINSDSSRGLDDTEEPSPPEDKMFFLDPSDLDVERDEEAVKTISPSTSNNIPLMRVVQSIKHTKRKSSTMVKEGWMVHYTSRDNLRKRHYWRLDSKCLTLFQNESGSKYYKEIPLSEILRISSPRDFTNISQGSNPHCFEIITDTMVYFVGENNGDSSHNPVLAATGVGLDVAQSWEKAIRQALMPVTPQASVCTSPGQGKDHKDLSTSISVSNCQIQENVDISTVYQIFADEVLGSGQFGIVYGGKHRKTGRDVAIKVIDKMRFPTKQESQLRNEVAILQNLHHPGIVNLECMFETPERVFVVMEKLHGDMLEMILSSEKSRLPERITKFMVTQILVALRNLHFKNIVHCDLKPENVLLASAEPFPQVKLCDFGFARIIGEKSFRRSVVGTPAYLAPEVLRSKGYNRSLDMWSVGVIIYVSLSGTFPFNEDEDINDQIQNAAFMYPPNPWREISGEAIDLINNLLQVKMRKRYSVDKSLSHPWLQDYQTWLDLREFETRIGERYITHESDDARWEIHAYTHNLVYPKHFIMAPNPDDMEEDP

[14] = target: BDNF/NT-3 growth factors receptor (Homo sapiens, UniProt Q16620);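 note: NTRK2 measured as one member of a broad kinome-wide kinase profiling panel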
[15] = target: Mitogen-activated protein kinase kinase kinase kinase 4 (Homo sapiens, UniProt O95819)
[16] = target: Mitogen-activated protein kinase 9 (Homo sapiens, UniProt P45984);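 note: value from a kinome panel profiling assay, MAPK9 panel entry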
[17] = target: cAMP-dependent protein kinase catalytic subunit PRKX (Homo sapiens, UniProt P51817)
[18] = target: Dual specificity protein kinase CLK4 (Homo sapiens, UniProt Q9HAZ1)
Chain of Dual specificity protein kinase CLK4 (Q9HAZ1 whole entry): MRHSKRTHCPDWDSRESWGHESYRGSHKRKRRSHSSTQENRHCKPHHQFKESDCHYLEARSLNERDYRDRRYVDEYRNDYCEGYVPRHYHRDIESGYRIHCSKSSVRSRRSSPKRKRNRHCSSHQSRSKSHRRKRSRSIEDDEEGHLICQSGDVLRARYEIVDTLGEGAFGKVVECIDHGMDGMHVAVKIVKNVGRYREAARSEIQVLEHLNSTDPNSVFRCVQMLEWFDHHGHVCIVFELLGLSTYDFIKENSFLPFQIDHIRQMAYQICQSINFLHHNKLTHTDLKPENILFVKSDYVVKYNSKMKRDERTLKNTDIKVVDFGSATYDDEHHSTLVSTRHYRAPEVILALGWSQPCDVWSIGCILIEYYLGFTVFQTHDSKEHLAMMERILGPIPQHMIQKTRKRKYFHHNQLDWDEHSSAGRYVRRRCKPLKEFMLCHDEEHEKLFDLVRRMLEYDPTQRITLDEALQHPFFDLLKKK

[19] = target: Receptor-type tyrosine-protein kinase FLT3 (Homo sapiens, UniProt P36888);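 note: FLT3 was tested as one member of a kinome-wide kinase panel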
[20] = target: ALK tyrosine kinase receptor (Homo sapiens, UniProt Q9UM73);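 note: ALK tested as one member of a kinase panel screen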
[21] = target: Rho-associated protein kinase 1 (Homo sapiens, UniProt Q13464);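 note: measured within a broad kinome-wide panel profiling many kinases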
[22] = target: Proto-oncogene tyrosine-protein kinase receptor Ret (Homo sapiens, UniProt P07949);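 note: measured within a kinome-wide profiling panel, RET as the panel member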
Chain of Proto-oncogene tyrosine-protein kinase receptor Ret (P07949 whole entry): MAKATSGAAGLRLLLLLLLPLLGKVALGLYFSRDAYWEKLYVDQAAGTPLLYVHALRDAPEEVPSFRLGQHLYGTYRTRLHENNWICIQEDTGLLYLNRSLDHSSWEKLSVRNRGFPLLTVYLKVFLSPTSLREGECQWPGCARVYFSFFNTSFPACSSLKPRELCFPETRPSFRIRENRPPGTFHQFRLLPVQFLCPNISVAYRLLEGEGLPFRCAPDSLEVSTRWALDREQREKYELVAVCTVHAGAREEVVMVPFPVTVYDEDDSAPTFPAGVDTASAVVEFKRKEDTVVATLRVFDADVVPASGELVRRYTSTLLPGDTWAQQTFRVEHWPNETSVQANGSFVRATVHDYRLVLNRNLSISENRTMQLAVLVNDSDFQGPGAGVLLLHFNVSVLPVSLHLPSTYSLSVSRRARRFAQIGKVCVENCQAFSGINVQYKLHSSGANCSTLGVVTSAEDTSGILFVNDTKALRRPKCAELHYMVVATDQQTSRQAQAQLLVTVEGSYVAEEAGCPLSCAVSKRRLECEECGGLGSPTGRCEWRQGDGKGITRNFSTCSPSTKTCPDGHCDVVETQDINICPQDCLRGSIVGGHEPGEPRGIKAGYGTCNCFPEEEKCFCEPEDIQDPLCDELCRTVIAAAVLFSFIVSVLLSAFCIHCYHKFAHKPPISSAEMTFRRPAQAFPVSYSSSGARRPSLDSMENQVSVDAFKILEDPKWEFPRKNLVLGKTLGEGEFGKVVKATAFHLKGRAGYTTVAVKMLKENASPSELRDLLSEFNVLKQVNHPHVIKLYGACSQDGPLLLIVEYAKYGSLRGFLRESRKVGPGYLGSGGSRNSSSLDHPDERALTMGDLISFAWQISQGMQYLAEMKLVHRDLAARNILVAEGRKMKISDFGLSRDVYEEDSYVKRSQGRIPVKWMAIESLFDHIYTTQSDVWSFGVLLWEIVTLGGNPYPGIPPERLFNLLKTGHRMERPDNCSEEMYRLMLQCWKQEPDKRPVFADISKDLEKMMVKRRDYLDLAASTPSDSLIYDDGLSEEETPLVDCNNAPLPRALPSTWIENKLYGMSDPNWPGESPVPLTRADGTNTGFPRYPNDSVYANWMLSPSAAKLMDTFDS

Activated CDC42 kinase 1 = Activated CDC42 kinase 1 (Homo sapiens, UniProt Q07912); assay: Navigating the Kinome. Panel member name: ACK1
[23] = target: Cyclin-dependent kinase 9 (Homo sapiens, UniProt P50750);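 note: value from the CDK9 entry of a kinome-spanning kinase panel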
[24] = target: Serine/threonine-protein kinase TAO1 (Homo sapiens, UniProt Q7L7X3)
[25] = target: Insulin-like growth factor 1 receptor (Homo sapiens, UniProt P08069); assay: Navigating the Kinome. Panel member name: IGF1R
[26] = target: Mitogen-activated protein kinase 8 (Homo sapiens, UniProt P45983);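 note: value comes from one member of a kinome-wide kinase profiling panel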
[27] = target: Leukocyte tyrosine kinase receptor (Homo sapiens, UniProt P29376); assay: Navigating the Kinome. Panel member name: LTK
[28] = target: Tyrosine-protein kinase BTK (Homo sapiens, UniProt Q06187)
Chain of Tyrosine-protein kinase BTK (Q06187 whole entry): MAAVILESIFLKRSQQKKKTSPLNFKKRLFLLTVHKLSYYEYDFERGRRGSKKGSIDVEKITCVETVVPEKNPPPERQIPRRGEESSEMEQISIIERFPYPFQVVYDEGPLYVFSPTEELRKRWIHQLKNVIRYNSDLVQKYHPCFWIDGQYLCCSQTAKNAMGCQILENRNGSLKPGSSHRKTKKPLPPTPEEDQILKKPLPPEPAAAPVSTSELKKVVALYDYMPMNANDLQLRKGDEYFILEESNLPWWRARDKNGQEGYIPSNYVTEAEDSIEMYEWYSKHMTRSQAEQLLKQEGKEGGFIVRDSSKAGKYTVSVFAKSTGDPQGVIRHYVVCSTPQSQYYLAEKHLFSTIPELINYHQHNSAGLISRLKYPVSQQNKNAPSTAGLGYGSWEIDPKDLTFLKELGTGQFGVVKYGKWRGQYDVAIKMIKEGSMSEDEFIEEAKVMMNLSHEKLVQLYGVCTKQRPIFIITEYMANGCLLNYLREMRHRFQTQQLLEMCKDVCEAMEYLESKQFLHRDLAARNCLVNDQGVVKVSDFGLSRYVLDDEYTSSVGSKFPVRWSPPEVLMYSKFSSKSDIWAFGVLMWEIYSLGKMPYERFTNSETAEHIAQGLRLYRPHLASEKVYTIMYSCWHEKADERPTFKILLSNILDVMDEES

[29] = target: Glycogen synthase kinase-3 beta (Homo sapiens, UniProt P49841);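 note: value comes from a broad kinome profiling panel, with GSK3B as the panel member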
[30] = target: Vascular endothelial growth factor receptor 2 (Homo sapiens, UniProt P35968)
[31] = target: Leucine-rich repeat serine/threonine-protein kinase 2 (Homo sapiens, UniProt Q5S007);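 note: value from a broad kinome-wide panel profiling study in which LRRK2 was one of the kinases tested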
[32] = target: Death-associated protein kinase 3 (Homo sapiens, UniProt O43293);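 note: measured as one member of a kinome-wide profiling panel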
Chain of Death-associated protein kinase 3 (O43293 whole entry): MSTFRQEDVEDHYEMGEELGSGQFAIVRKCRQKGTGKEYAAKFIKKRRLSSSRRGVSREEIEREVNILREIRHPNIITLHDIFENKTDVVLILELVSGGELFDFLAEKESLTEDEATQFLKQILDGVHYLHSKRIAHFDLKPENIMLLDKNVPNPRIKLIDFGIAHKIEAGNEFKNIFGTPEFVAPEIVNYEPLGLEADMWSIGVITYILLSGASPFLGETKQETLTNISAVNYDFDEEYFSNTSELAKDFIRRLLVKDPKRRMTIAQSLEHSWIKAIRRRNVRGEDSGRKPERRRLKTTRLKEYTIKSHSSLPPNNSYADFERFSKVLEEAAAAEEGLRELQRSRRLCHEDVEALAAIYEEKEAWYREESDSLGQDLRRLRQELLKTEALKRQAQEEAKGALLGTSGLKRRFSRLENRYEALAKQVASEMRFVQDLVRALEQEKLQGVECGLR

[33] = target: 5'-AMP-activated protein kinase catalytic subunit alpha-1 (Homo sapiens, UniProt Q13131)

Row | SMILES | Ki [1] | Ki [2] | Ki [3] | Ki [4] | Ki [5] | Ki [6] | Ki [7] | Ki [8] | Ki (Aurora kinase A) | Ki [9] | Ki [10] | Ki [11] | Ki [12] | Ki [13] | Ki [14] | Ki [15] | Ki [16] | Ki [17] | Ki [18] | Ki [19] | other results
1 | CCCOc1cccc(C(C)NC(=O)c2ccc(-c3ccncc3F)cc2)c1 (stereo not given) | > 3.16 µM (inactive) | 2 µM (active) | > 3.16 µM (inactive) | > 3.16 µM (inactive) | > 3.16 µM (inactive) | > 3.98 µM (inactive) | > 5.01 µM (inactive) | > 3.98 µM (inactive) | > 1.58 µM (inactive) | 3.16 µM (active) | > 3.98 µM (inactive) | > 2 µM (inactive) | > 3.98 µM (inactive) | > 3.98 µM (inactive) | > 3.98 µM (inactive) | > 5.01 µM (inactive) | > 3.98 µM (inactive) | 0.501 µM (active) | 0.1 µM (active) | > 3.16 µM (inactive) | Ki [20]: > 6.31 µM (inactive); Ki [21]: 0.000794 µM (active); Ki [22]: > 3.16 µM (inactive); Ki (Activated CDC42 kinase 1): > 3.98 µM (inactive); Ki [23]: > 1.58 µM (inactive); Ki [24]: > 6.31 µM (inactive); Ki [25]: > 2.51 µM (inactive); Ki [26]: > 5.01 µM (inactive); Ki [27]: > 2.51 µM (inactive); Ki [28]: > 6.31 µM (inactive); Ki [29]: 2.51 µM (active); Ki [30]: > 2.51 µM (inactive); Ki [31]: > 2.51 µM (inactive); Ki [32]: > 5.01 µM (inactive); Ki [33]: > 3.16 µM (inactive)
2 | COc1cccc(C(C)NC(=O)c2cnc(-c3ccncc3)nc2)c1 (stereo not given) | > 3.16 µM (inactive) | 0.631 µM (active) | > 3.16 µM (inactive) | > 3.16 µM (inactive) | > 3.16 µM (inactive) | > 3.98 µM (inactive) | > 5.01 µM (inactive) | > 3.98 µM (inactive) | > 1.58 µM (inactive) | 2.51 µM (active) | > 3.98 µM (inactive) | > 2 µM (inactive) | > 3.98 µM (inactive) | > 3.98 µM (inactive) | > 3.98 µM (inactive) | > 5.01 µM (inactive) | > 3.98 µM (inactive) | 1.26 µM (active) | > 2.51 µM (inactive) | > 3.16 µM (inactive) | Ki [20]: > 6.31 µM (inactive); Ki [21]: 0.00398 µM (active); Ki [22]: > 3.16 µM (inactive); Ki (Activated CDC42 kinase 1): > 3.98 µM (inactive); Ki [23]: > 1.58 µM (inactive); Ki [24]: > 6.31 µM (inactive); Ki [25]: > 2.51 µM (inactive); Ki [26]: > 5.01 µM (inactive); Ki [27]: > 2.51 µM (inactive); Ki [28]: > 6.31 µM (inactive); Ki [29]: 1.58 µM (active); Ki [30]: > 2.51 µM (inactive); Ki [31]: > 2.51 µM (inactive); Ki [32]: > 5.01 µM (inactive); Ki [33]: > 3.16 µM (inactive)
